ChEMBL document CHEMBL4828748, “Design, synthesis, and pharmacological evaluation of sinomenine derivatives on rings A and C: Novel compounds screening for aplastic anemia targeting on cytotoxic T lymphocyte” (Eur J Med Chem, 2021)

Experiments:
Peritoneal macrophage [1] = assay: Inhibition of LPS-induced NO production in C57BL/6J mouse peritoneal macrophages at 1 uM measured after 24 hrs in presence of LPS by Griess reagent based assay relative to control; type: functional
[2] = Cytotoxicity against C57BL/6J mouse peritoneal macrophages assessed as reduction of cell viability at 1 uM incubated for 24 hrs in presence of LPS by MTT assay; type: cell-based, Peritoneal macrophage
[3] = Inhibition of mouse CTLL-2 cells activity at 10 uM incubated for 24 hrs; type: functional
Peritoneal macrophage [4] = assay: Inhibition of LPS-induced NO production in C57BL/6J mouse peritoneal macrophages at 10 uM measured after 24 hrs in presence of LPS by Griess reagent based assay relative to control; type: functional
[5] = Cytotoxicity against C57BL/6J mouse peritoneal macrophages assessed as reduction of cell viability at 10 uM incubated for 24 hrs in presence of LPS by MTT assay; type: cell-based, Peritoneal macrophage
[6] = Inhibition of mouse CTLL-2 cells activity incubated for 24 hrs; type: functional, cell-based
[7] = Acute toxicity in po dosed Kunming mouse; type: organism-based; details: in vivo

Work on `C[C@@H]1C[C@H]2[C@@H]3CCC4=CC(=O)C=C[C@]4(C)[C@@]3(F)[C@@H](O)C[C@]2(C)[C@@]1(O)C(=O)CO` [DEXAMETHASONE] yielded an inhibition at 1 µM (Peritoneal macrophage [1]) of 62.8% and an inhibition at 24 h, 1 µM [2] of 17%.
Compound `COC1=C[C@@H]2[C@@H]3Cc4ccc(OC)c(OC(=O)c5cccnc5)c4[C@]2(CCN3C)CC1=O` has an inhibition at 10 µM [3] of 3.2%, an inhibition at 10 µM (Peritoneal macrophage [4]) of 14% and an inhibition at 24 h, 10 µM [5] of 0.8%.
For `COC1=C[C@@H]2[C@@H]3Cc4c(C=O)cc(OC)c(OC(=O)/C=C/c5ccccc5)c4[C@]2(CCN3C)CC1=O`, the inhibition at 10 µM [3] was 4.7%, the inhibition at 10 µM (Peritoneal macrophage [4]) was 21.6% and the inhibition at 24 h, 10 µM [5] was 0.6%.
With `C=CCCCCCCCCC(=O)OCc1cc(OC)c(OC(=O)CCCCCCCCC=C)c2c1C[C@H]1[C@H]3C=C(OC)C(=O)C[C@@]23CCN1C` the inhibition at 10 µM [3] was 33.9%, the inhibition at 10 µM (Peritoneal macrophage [4]) was -0.9% and the inhibition at 24 h, 10 µM [5] was 9.3%.
In the case of `CCCCCCCCCCCCCC(=O)OCc1cc(OC)c(OC(=O)CCCCCCCCCCCCC)c2c1C[C@H]1[C@H]3C=C(OC)C(=O)C[C@@]23CCN1C`, the inhibition at 10 µM [3] is reported as -0.9%, the inhibition at 10 µM (Peritoneal macrophage [4]) is reported as 10.1% and the inhibition at 24 h, 10 µM [5] is reported as 2.5%.
`CCCCCCCCCCCC(=O)Oc1c(OC)ccc2c1[C@@]13CCN(C)[C@@H](C2)[C@H]1C[C@@H](OC)C(=O)C3` gave an IC50 [6] of 4.4 µM, an inhibition at 10 µM [3] of 96.7% and an inhibition at 10 µM (Peritoneal macrophage [4]) of 5%. It also gave an inhibition at 24 h, 10 µM [5] of 3.1%.
For `CCCCCCCC/C=C/CCCCCCCCCCCC(=O)Oc1c(OC)ccc2c1[C@@]13CCN(C)[C@@H](C2)[C@H]1C=C(OC)C(=O)C3`, the inhibition at 10 µM [3] was 32.6%, the inhibition at 10 µM (Peritoneal macrophage [4]) was 3.5% and the inhibition at 24 h, 10 µM [5] was 0.4%.
In the case of `C/C=C/C=C/C(=O)Oc1c(OC)ccc2c1[C@@]13CCN(C)[C@@H](C2)[C@H]1C=C(OC)C(=O)C3`, the inhibition at 10 µM [3] is reported as 14.3%, the inhibition at 10 µM (Peritoneal macrophage [4]) is reported as 46.9% and the inhibition at 24 h, 10 µM [5] is reported as 0.3%.
Work on `COC1=C[C@@H]2[C@@H]3Cc4c(CO)cc(OC)c(O)c4[C@]2(CCN3C)CC1=O` yielded an inhibition at 10 µM [3] of 6.1%, an inhibition at 10 µM (Peritoneal macrophage [4]) of 3.6% and an inhibition at 24 h, 10 µM [5] of 1.2%.
Work on `COc1ccc2c(c1OC(C)=O)[C@@]13CCN(C)[C@@H](C2)[C@H]1C[C@@H](OC)C(=O)C3` yielded an inhibition at 10 µM [3] of 12.5%, an inhibition at 10 µM (Peritoneal macrophage [4]) of 5.6% and an inhibition at 24 h, 10 µM [5] of 3.2%.
Work on `COC1=C[C@@H]2[C@@H]3Cc4ccc(OC)c(OC(=O)/C=C/c5ccccc5)c4[C@]2(CCN3C)CC1=O` yielded an inhibition at 10 µM [3] of 5.4%, an inhibition at 10 µM (Peritoneal macrophage [4]) of 61.1% and an inhibition at 24 h, 10 µM [5] of -3.3%.
Compound `C/C=C/C=C/C(=O)OCc1cc(OC)c(OC(=O)/C=C/C=C/C)c2c1C[C@H]1[C@H]3C=C(OC)C(=O)C[C@@]23CCN1C` has an inhibition at 10 µM [3] of 6.2%, an inhibition at 10 µM (Peritoneal macrophage [4]) of 90.8% and an inhibition at 24 h, 10 µM [5] of 6.1%.
With `CCCCCCCCCCCCCCCC(=O)Oc1c(OC)cc(C=O)c2c1[C@@]13CCN(C)[C@@H](C2)[C@H]1C=C(OC)C(=O)C3` the inhibition at 10 µM [3] was 32.2%, the inhibition at 10 µM (Peritoneal macrophage [4]) was 21% and the inhibition at 24 h, 10 µM [5] was -1.9%.
With `COc1ccc2c(c1OC(=O)/C=C/c1ccccc1)[C@@]13CCN(C)[C@@H](C2)[C@H]1C[C@@H](OC)C(=O)C3` the inhibition at 10 µM [3] was 11.6%, the inhibition at 10 µM (Peritoneal macrophage [4]) was 57.4% and the inhibition at 24 h, 10 µM [5] was 4.8%.
`CCCCCCCCCCCCCC(=O)Oc1c(OC)ccc2c1[C@@]13CCN(C)[C@@H](C2)[C@H]1C[C@@H](OC)C(=O)C3` showed an IC50 [6] of 6.7 µM, an inhibition at 10 µM [3] of 98.3% and an inhibition at 10 µM (Peritoneal macrophage [4]) of 46.2%. The inhibition at 24 h, 10 µM [5] was 4.6%.
Compound `C/C=C/C=C/C(=O)Oc1c(OC)ccc2c1[C@@]13CCN(C)[C@@H](C2)[C@H]1C[C@@H](OC)C(=O)C3` has an inhibition at 10 µM [3] of 1.1%, an inhibition at 10 µM (Peritoneal macrophage [4]) of 40.7% and an inhibition at 24 h, 10 µM [5] of 5.1%.
`CCCCCCCCCCCCCC(=O)Oc1c(OC)cc(C=O)c2c1[C@@]13CCN(C)[C@@H](C2)[C@H]1C=C(OC)C(=O)C3` showed an IC50 [6] of 3.7 µM, an inhibition at 10 µM [3] of 90.8% and an inhibition at 10 µM (Peritoneal macrophage [4]) of 33.9%. The inhibition at 24 h, 10 µM [5] was 0.5%.
Compound `COc1ccc2c(c1OC(=O)c1cccnc1)[C@@]13CCN(C)[C@@H](C2)[C@H]1C[C@@H](OC)C(=O)C3` has an inhibition at 10 µM [3] of 9.1%, an inhibition at 10 µM (Peritoneal macrophage [4]) of 11.2% and an inhibition at 24 h, 10 µM [5] of 3.1%.
For `CCCCCCCCCCCCCC(=O)Oc1c(OC)ccc2c1[C@@]13CCN(C)[C@@H](C2)[C@H]1C=C(OC)C(=O)C3`, the IC50 [6] was 4.3 µM, the inhibition at 10 µM [3] was 88.1% and the inhibition at 10 µM (Peritoneal macrophage [4]) was 4.3%. The inhibition at 24 h, 10 µM [5] was 2.7%.
Work on `C/C=C/C[C@@H](C)[C@@H](O)[C@H]1C(=O)N[C@@H](CC)C(=O)N(C)CC(=O)N(C)[C@@H](CC(C)C)C(=O)N[C@@H](C(C)C)C(=O)N(C)[C@@H](CC(C)C)C(=O)N[C@@H](C)C(=O)N[C@H](C)C(=O)N(C)[C@@H](CC(C)C)C(=O)N(C)[C@@H](CC(C)C)C(=O)N(C)[C@@H](C(C)C)C(=O)N1C` [CYCLOSPORINE] yielded an inhibition at 10 µM [3] of 96.8%.
`CCCCCCCCCCCC(=O)Oc1c(OC)cc(C=O)c2c1[C@@]13CCN(C)[C@@H](C2)[C@H]1C=C(OC)C(=O)C3` gave an inhibition at 10 µM [3] of 25.2%, an inhibition at 10 µM (Peritoneal macrophage [4]) of 2.2% and an inhibition at 24 h, 10 µM [5] of 0%.
Work on `CCCCCCCC/C=C/CCCCCCCCCCCC(=O)OCc1cc(OC)c(OC(=O)CCCCCCCCCCC/C=C/CCCCCCCC)c2c1C[C@H]1[C@H]3C=C(OC)C(=O)C[C@@]23CCN1C` yielded an inhibition at 10 µM [3] of 6.7%, an inhibition at 10 µM (Peritoneal macrophage [4]) of 1.1% and an inhibition at 24 h, 10 µM [5] of 0.2%.
Compound `CCCCCCCC/C=C/CCCCCCCCCCCC(=O)Oc1c(OC)cc(C=O)c2c1[C@@]13CCN(C)[C@@H](C2)[C@H]1C=C(OC)C(=O)C3` has an inhibition at 10 µM [3] of 29.6%, an inhibition at 10 µM (Peritoneal macrophage [4]) of 18.6% and an inhibition at 24 h, 10 µM [5] of 0.5%.
Compound `CCCCCCCCCCCCCCCC(=O)OCc1cc(OC)c(OC(=O)CCCCCCCCCCCCCCC)c2c1C[C@H]1[C@H]3C=C(OC)C(=O)C[C@@]23CCN1C` has an inhibition at 10 µM [3] of 20.5%, an inhibition at 10 µM (Peritoneal macrophage [4]) of -2.4% and an inhibition at 24 h, 10 µM [5] of 5.3%.
`COC1=C[C@@H]2[C@@H]3Cc4c(C=O)cc(OC)c(O)c4[C@]2(CCN3C)CC1=O` gave an inhibition at 10 µM [3] of 3.5%, an inhibition at 10 µM (Peritoneal macrophage [4]) of 4.2% and an inhibition at 24 h, 10 µM [5] of 2.5%.
With `COC1=C[C@@H]2[C@@H]3Cc4ccc(OC)c(O)c4[C@]2(CCN3C)CC1=O` [SINOMENINE] the LD50 [7] was 1100 mg/kg, the inhibition at 10 µM [3] was 2.8% and the inhibition at 10 µM (Peritoneal macrophage [4]) was 7.5%. The inhibition at 24 h, 10 µM [5] was 1.3%.
Work on `C/C=C/C=C/C(=O)Oc1c(OC)cc(C=O)c2c1[C@@]13CCN(C)[C@@H](C2)[C@H]1C=C(OC)C(=O)C3` yielded an inhibition at 10 µM [3] of 14%, an inhibition at 10 µM (Peritoneal macrophage [4]) of 46% and an inhibition at 24 h, 10 µM [5] of 1.4%.
Work on `CCCCCCCCCCCC(=O)Oc1c(OC)ccc2c1[C@@]13CCN(C)[C@@H](C2)[C@H]1C=C(OC)C(=O)C3` yielded an IC50 [6] of 3.8 µM, an inhibition at 10 µM [3] of 98.7% and an inhibition at 10 µM (Peritoneal macrophage [4]) of 42.7%. It also gave an inhibition at 24 h, 10 µM [5] of 4.4%.
Compound `C=CCCCCCCCCC(=O)Oc1c(OC)cc(C=O)c2c1[C@@]13CCN(C)[C@@H](C2)[C@H]1C=C(OC)C(=O)C3` has an inhibition at 10 µM [3] of 23.4%, an inhibition at 10 µM (Peritoneal macrophage [4]) of 11.6% and an inhibition at 24 h, 10 µM [5] of 1.3%.
Work on `CCCCCCCCCCCCCCCC(=O)Oc1c(OC)ccc2c1[C@@]13CCN(C)[C@@H](C2)[C@H]1C[C@@H](OC)C(=O)C3` yielded an inhibition at 10 µM [3] of 45.3%, an inhibition at 10 µM (Peritoneal macrophage [4]) of 93.5% and an inhibition at 24 h, 10 µM [5] of 1.7%.
Work on `CCCCCCCCCCCC(=O)OCc1cc(OC)c(OC(=O)CCCCCCCCCCC)c2c1C[C@H]1[C@H]3C=C(OC)C(=O)C[C@@]23CCN1C` yielded an inhibition at 10 µM [3] of 6.8%, an inhibition at 10 µM (Peritoneal macrophage [4]) of 3.4% and an inhibition at 24 h, 10 µM [5] of 6.2%.
`COC1=C[C@@H]2[C@@H]3Cc4c(C=O)cc(OC)c(OC(C)=O)c4[C@]2(CCN3C)CC1=O` showed an inhibition at 10 µM [3] of 10.3%, an inhibition at 10 µM (Peritoneal macrophage [4]) of 0.6% and an inhibition at 24 h, 10 µM [5] of 0.2%.
Compound `C=CCCCCCCCCC(=O)Oc1c(OC)ccc2c1[C@@]13CCN(C)[C@@H](C2)[C@H]1C=C(OC)C(=O)C3` has an IC50 [6] of 7.6 µM, an inhibition at 10 µM [3] of 52.8% and an inhibition at 10 µM (Peritoneal macrophage [4]) of 94%. The inhibition at 24 h, 10 µM [5] was 8.8%.
For `COc1ccc2c(c1O)[C@@]13CCN(C)[C@@H](C2)[C@H]1C[C@@H](OC)C(=O)C3`, the inhibition at 10 µM [3] was 5.8%, the inhibition at 10 µM (Peritoneal macrophage [4]) was 6.5% and the inhibition at 24 h, 10 µM [5] was 6.5%.
